From patent US11883539B2, “Pharmaceutical compositions of berberine with EPA and DHA, and methods thereof” (SHENZHEN HIGHTIDE BIOPHARMACEUTICAL, LTD., priority 2015, dated 2024)
Where two headings read alike, the source gives them in different places.

Test: Single-dose pharmacokinetics study in rats (BBR•HCl, EPA-EE, BBR + EPA-EE; 3 rats per group)
Format: in vivo
Details: male, Sprague-Dawley, rat, SD rats, single oral administration, plasma
Protocol: In the single-dose pharmacokinetics study in rats, after 7-day acclimation, healthy male Sprague-Dawley (SD) rats with the body weight of 210-250 g were randomized into four groups as follows (3 rats per group).
The rats in each group were orally treated with the suspensions of the corresponding testing articles indicated above in 0.5% gum tragacanth respectively. Blood samples of the test animals were collected pre-dose and at the time points of 15 min, 30 min, 1 h, 1.5 h, 2 h, 4 h, 8 h, 24 h post-dose. The collected blood samples (approximately 400 μL) were placed into tubes containing heparin sodium and centrifuged at 8,000 rpm for 6 minutes at 4° C. to separate plasma. The obtained plasma from each sample was stored at −80° C. until being analyzed.
Plasma concentrations of BBR and EPA were determined using tandem mass spectrometry (LC-MS/MS) analysis. A non-compartmental module of WinNonlin® Professional 5.2 (Pharsight; St. Louis MO), was used to calculate PK parameters. The abbreviation AUC(0-t) represents area under the curve from the time of dosing to the time of the last observation, the AUC(0-∞) represents area under the curve from the time of dosing to infinity, and the Cmax represents maximum concentration detected.

Row | AUC(0-t) (EPA-EE 45.48 mg/Kg (alone or + BBR•HCl 51.13 mg/Kg), read-out: EPA (Free acid) AUC(0-t)) [ng·h/mL] | AUC(0-inf) (EPA-EE 45.48 mg/Kg (alone or + BBR•HCl 51.13 mg/Kg), read-out: EPA (Free acid) AUC(0-∞)) [ng·h/mL] | Cmax (EPA-EE 45.48 mg/Kg (alone or + BBR•HCl 51.13 mg/Kg), read-out: EPA (Free acid) Cmax) [ng/mL] | AUC(0-t) (BBR•HCl 51.13 mg/Kg (alone or + EPA-EE 45.48 mg/Kg), read-out: BBR AUC(0-t)) [ng·h/mL] | AUC(0-inf) (BBR•HCl 51.13 mg/Kg (alone or + EPA-EE 45.48 mg/Kg), read-out: BBR AUC(0-∞)) [ng·h/mL] | Cmax (BBR•HCl 51.13 mg/Kg (alone or + EPA-EE 45.48 mg/Kg), read-out: BBR Cmax) [ng/mL] | Compound
1 | 3750 | 6600 | 629 | – | – | – | CCC=CCC=CCC=CCC=CCC=CCCCC(=O)O (stereo in doubt) [EPA, (5Z,8Z,11Z,14Z,17Z)-5,8,11,14,17-icosapentaenoic acid]
2 | – | – | – | 7.46 | 8.84 | 0.95 | COc1ccc2cc3[n+](cc2c1OC)CCc1cc2c(cc1-3)OCO2 [BBR, 5,6-dihydro-9,10-dimethoxybenzo[g]-1,3-benzodioxolo[5,6-a]quinolizinium]
